Seven molecules from ChEMBL document CHEMBL1201862, “PubChem BioAssay data set” (2004) can be followed below.

One may read the GI50 as the concentration at which growth is held to half of that of the control.

Test systems include OVCAR-8; SK-MEL-28; CAKI-1; SK-OV-3; HOP-92; NCI-H23; MDA-N; Hs-578T; SNB-75; MDA-MB-231; UACC-257; MCF7; KM12; OVCAR-3; TK-10; HCT-116; SNB-19; HT-29; HOP-62; SF-539.
Assay in all cases: DTP human tumour cell line panel, 48 h

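Tested at 5 concentrations; 48 h exposure; 96-well plates; endpoints linearly interpolated, else capped at highest concentration. GI50 marks 50% less growth.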 The source made the active and inactive calls. No stated cut-off is given here; in the data, active = GI50 up to about 1.1 µM and inactive = higher. Some results are limits rather than exact numbers.

As for `COc1ccc2c3c1OC1c4[nH]c5ccccc5c4CC4(O)C(C2)N(C)CCC314` (stereo not drawn), the GI50 in the assay with OVCAR-8 was 66.4 µM (inactive); with SK-MEL-28, 17.4 µM (inactive); with CAKI-1, 35.3 µM (inactive); in the assay on SK-OV-3, > 100 µM (inactive); in the assay with HOP-92 it was 14.3 µM (inactive); in the assay with NCI-H23, > 100 µM (inactive). Also, the GI50 was 17.3 µM (inactive) in the assay on MDA-N; 21.3 µM (inactive) with Hs-578T; 29.3 µM (inactive) with SNB-75; 25.5 µM (inactive) in the assay with MDA-MB-231; 17.3 µM (inactive) with UACC-257; 21.8 µM (inactive) in the assay on MCF7. For the same molecule, the GI50 with KM12 is 30.3 µM (inactive); with OVCAR-3 it was 42.3 µM (inactive); with TK-10 it was 22.9 µM (inactive); with HCT-116 it was 32.3 µM (inactive); in the assay on SNB-19 it was 32.4 µM (inactive); with HT-29 it was 22 µM (inactive). Besides, the GI50 in the assay on HOP-62 was 40.3 µM (inactive).

Consider `COC(=O)[C@H](Cc1ccccc1)NC(=O)c1ccc(CNC(=O)/C=C/c2ccc(-c3ccccc3)cc2)cc1`, for which the GI50 in the assay on OVCAR-8 is 7.1 µM (inactive); with SK-MEL-28, > 100 µM (inactive); in the assay on CAKI-1 it was 65 µM (inactive); with SK-OV-3 it was 57.8 µM (inactive); in the assay on HOP-92, 80.9 µM (inactive); with NCI-H23 it was 27.8 µM (inactive). Also, the GI50 is > 100 µM (inactive) with MDA-N; 22.8 µM (inactive) in the assay with Hs-578T; 10.5 µM (inactive) in the assay with SNB-75; 22.1 µM (inactive) in the assay on MDA-MB-231; > 100 µM (inactive) in the assay with UACC-257; > 100 µM (inactive) in the assay on MCF7. Also, the GI50 with KM12 is > 100 µM (inactive); in the assay with OVCAR-3, > 100 µM (inactive); with TK-10, 68.1 µM (inactive); with HCT-116, 4.95 µM (inactive); in the assay with SNB-19, 12.6 µM (inactive); in the assay with HT-29, 3.71 µM (inactive). Besides, in the assay with HOP-62, the GI50 is 15.6 µM (inactive).

With `CCOC(=O)C12C(=O)CCN1CCc1ccccc1C2C` (stereo not drawn), the GI50 in the assay on OVCAR-8, with SK-MEL-28, with CAKI-1, with SK-OV-3, in the assay with HOP-92 and in the assay on NCI-H23 was > 100 µM (inactive) each time. In addition, the GI50 in the assay with MDA-N, in the assay on Hs-578T, in the assay with MDA-MB-231, in the assay with SF-539, in the assay with UACC-257 and in the assay with MCF7 was > 100 µM (inactive) throughout. In addition, the GI50 with KM12, in the assay with OVCAR-3, in the assay with TK-10, with HCT-116, in the assay with SNB-19 and with HT-29 was > 100 µM (inactive) in each case. The GI50 with HOP-62 was > 100 µM (inactive).

In the case of `COc1ccc(-c2oc3c(OC)c(OC)c(OC)c(OC)c3c(=O)c2OC)cc1OC` [3,5,6,7,8,3',4'-HEPTAMETHOXYFLAVONE], the GI50 in the assay with OVCAR-8 is 23.6 µM (inactive); in the assay on SK-MEL-28, 66.7 µM (inactive); with CAKI-1, 53.8 µM (inactive); in the assay with SK-OV-3 it was > 100 µM (inactive); in the assay with HOP-92 it was 0.0481 µM (active); in the assay with NCI-H23 it was 72.6 µM (inactive). The GI50 in the assay with MDA-N is 27.6 µM (inactive); in the assay on Hs-578T, 20.9 µM (inactive); in the assay on MDA-MB-231, 59.7 µM (inactive); in the assay on SF-539, 65.8 µM (inactive); with UACC-257, 53.1 µM (inactive); in the assay on MCF7, 21.3 µM (inactive). The GI50 is 47.5 µM (inactive) in the assay on KM12; 18.7 µM (inactive) with OVCAR-3; 61 µM (inactive) with TK-10; 47.4 µM (inactive) with HCT-116; > 100 µM (inactive) in the assay with SNB-19; 26.5 µM (inactive) in the assay on HT-29. The GI50 in the assay on HOP-62 was 14.5 µM (inactive).

With `CCOC(=O)C1=C(C)N(Cc2ccccc2)C2(O)C=CC(=O)C3C(=O)N(c4ccccc4)C(=O)C132` (stereo not drawn), the GI50 with OVCAR-8 was 1.23 µM (inactive); in the assay with SK-MEL-28, 1.82 µM (inactive); in the assay on CAKI-1, 1.53 µM (inactive); in the assay on SK-OV-3, 6.75 µM (inactive); with HOP-92 it was 2.24 µM (inactive); in the assay on NCI-H23 it was 2.56 µM (inactive). Also, the GI50 with MDA-N was 3.61 µM (inactive); in the assay with Hs-578T, 5.4 µM (inactive); in the assay on MDA-MB-231, 3.96 µM (inactive); in the assay with SF-539, 1.6 µM (inactive); in the assay with UACC-257 it was 2.04 µM (inactive); in the assay on MCF7, 2.25 µM (inactive). The GI50 with KM12 is 1.99 µM (inactive); in the assay on OVCAR-3, 2.28 µM (inactive); in the assay on TK-10 it was 3.44 µM (inactive); in the assay with HCT-116, 1.15 µM (inactive); in the assay on SNB-19, 7.52 µM (inactive); with HT-29 it was 1.7 µM (inactive). In the assay on HOP-62, the GI50 was 2.35 µM (inactive).

For the molecule `O=C(/C=C\c1ccccc1)Oc1ccc(/C=C2\CCC/C(=C\c3ccc(OC(=O)/C=C\c4ccccc4)cc3)C2=O)cc1`, the GI50 in the assay with OVCAR-8, in the assay on SK-MEL-28, in the assay on CAKI-1, with HOP-92, in the assay on NCI-H23 and in the assay on MDA-N was > 100 µM (inactive) throughout. Besides, the GI50 is > 100 µM (inactive) in the assay with Hs-578T; 56.5 µM (inactive) with SNB-75; > 100 µM (inactive) with MDA-MB-231; > 100 µM (inactive) with SF-539; > 100 µM (inactive) in the assay with UACC-257; > 100 µM (inactive) in the assay on MCF7. The GI50 in the assay with KM12, in the assay on OVCAR-3, with TK-10, with HCT-116, with SNB-19 and in the assay on HT-29 was > 100 µM (inactive) each time. Also, in the assay on HOP-62, the GI50 is > 100 µM (inactive).

For `COc1ccccc1N1C(=O)CSC1c1c[nH]c2ccccc12` (stereo not drawn), the GI50 is > 100 µM (inactive) with OVCAR-8; 66.7 µM (inactive) in the assay with SK-MEL-28; > 100 µM (inactive) in the assay with SK-OV-3; > 100 µM (inactive) with HOP-92; > 100 µM (inactive) with NCI-H23; > 100 µM (inactive) in the assay on MDA-N. The GI50 in the assay on Hs-578T was > 100 µM (inactive); with SNB-75, 27.6 µM (inactive); in the assay with MDA-MB-231, 3.69 µM (inactive); in the assay on SF-539 it was > 100 µM (inactive); in the assay on UACC-257, > 100 µM (inactive); in the assay with MCF7, > 100 µM (inactive). Besides, the GI50 with KM12, in the assay on OVCAR-3, with TK-10, in the assay with HCT-116, in the assay with SNB-19 and with HT-29 was > 100 µM (inactive) throughout. For the same molecule, the GI50 with HOP-62 was > 100 µM (inactive).
